Laboratory results reported in patent publication US20160287589A1, “SUBSTITUTED-IMIDAZOPYRIDAZINES” (BAYER PHARMA AKTIENGESELLSCHAFT, priority 2013, published 2016).

Biological target: T1, MKNK1 (Homo sapiens, UniProt Q9BUB5, T385D)
T1 construct: GST (N); purchased Carna Biosciences 02-145; host or cells: insect cells (baculovirus expression system)
Test: MKNK1 kinase high ATP assay (TR-FRET-based)
Format: biochemical
Conditions: 2 mM ATP, 15 min preincubation
Method: MKNK1 Kinase High ATP Assay
MKNK1-inhibitory activity at high ATP of compounds of the present invention after their preincubation with MKNK1 was quantified employing the TR-FRET-based MKNK1 high ATP assay as described in the following paragraphs.
A recombinant fusion protein of Glutathione-S-Transferase (GST, N-terminally) and human full-length MKNK1 (amino acids 1-424 and T344D of accession number BAA 19885.1), expressed in insect cells using baculovirus expression system and purified via glutathione sepharose affinity chromatography, was purchased from Carna Biosciences (product no 02-145) and used as enzyme. As substrate for the kinase reaction the biotinylated peptide biotin-Ahx-IKKRKLTRRKSLKG (C-terminus in amide form) was used, which can be purchased e.g. from the company Biosyntan (Berlin-Buch, Germany).
For the assay 50 nL of a 100 fold concentrated solution of the test compound in DMSO was pipetted into a black low volume 384 well microtiter plate (Greiner Bio-One, Frickenhausen, Germany), 2 μL of a solution of MKNK1 in aqueous assay buffer [50 mM HEPES pH 7.5, 5 mM magnesium chloride, 1.0 mM dithiothreitol, 0.005% (v/v) Nonidet-P40 (Sigma)] was added and the mixture was incubated for 15 min at 22° C. to allow pre-binding of the test compounds to the enzyme before the start of the kinase reaction. Then the kinase reaction was started by the addition of 3 μL of a solution of adenosine-tri-phosphate (ATP, 3.3 mM=>final conc. in the 5 μL assay volume is 2 mM) and substrate (0.1 μM=>final conc. in the 5 μL assay volume is 0.06 μM) in assay buffer and the resulting mixture was incubated for a reaction time of 30 min at 22° C. The concentration of MKNK1 was adjusted depending of the activity of the enzyme lot and was chosen appropriate to have the assay in the linear range, typical concentrations were in the range of 0.003 μg/mL. The reaction was stopped by the addition of 5 μL of a solution of TR-FRET detection reagents (5 nM streptavidine-XL665 [Cisbio Bioassays, Codolet, France] and 1 nM anti-ribosomal protein S6 (pSer236)-antibody from Invitrogen [#44921G] and 1 nM LANCE EU-W1024 labeled ProteinG [Perkin-Elmer, product no. AD0071]) in an aqueous EDTA-solution (100 mM EDTA, 0.1% (w/v) bovine serum albumin in 50 mM HEPES pH 7.5).
The resulting mixture was incubated for 1 h at 22° C. to allow the formation of complex between the phosphorylated biotinylated peptide and the detection reagents. Subsequently the amount of phosphorylated substrate was evaluated by measurement of the resonance energy transfer from the Eu-chelate to the streptavidine-XL. Therefore, the fluorescence emissions at 620 nm and 665 nm after excitation at 350 nm were measured in a TR-FRET reader, e.g. a Rubystar (BMG Labtechnologies, Offenburg, Germany) or a Viewlux (Perkin-Elmer). The ratio of the emissions at 665 nm and at […] was taken as the measure for the amount of phosphorylated substrate. The data were normalised (enzyme reaction without inhibitor=0% inhibition, all other assay components but no enzyme=100% inhibition).

T1 sequence (Q9BUB5 1-424 isoform Q9BUB5-2 T344D): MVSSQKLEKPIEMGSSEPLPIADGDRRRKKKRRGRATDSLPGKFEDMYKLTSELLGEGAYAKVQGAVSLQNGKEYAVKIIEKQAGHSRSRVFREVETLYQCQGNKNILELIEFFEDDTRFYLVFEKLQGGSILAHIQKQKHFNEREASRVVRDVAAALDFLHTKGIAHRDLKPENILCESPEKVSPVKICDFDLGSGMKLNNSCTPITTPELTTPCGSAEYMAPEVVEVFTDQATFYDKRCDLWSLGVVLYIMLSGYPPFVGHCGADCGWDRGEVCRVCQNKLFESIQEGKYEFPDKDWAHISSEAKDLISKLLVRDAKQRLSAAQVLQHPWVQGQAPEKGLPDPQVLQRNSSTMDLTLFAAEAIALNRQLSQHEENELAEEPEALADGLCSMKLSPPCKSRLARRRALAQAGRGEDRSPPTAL

`CC(C)(C)C(=O)N1CCC[C@H]1CCOc1ccc2ncc(-c3cc4ccccc4o3)n2n1` [Example I-3, 1-[(2S)-2-(2-{[3-(1-Benzofuran-2-yl)imidazo[1,2-b]pyridazin-6-yl]oxy}ethyl)-pyrrolidin-1-yl]-2,2-dimethylpropan-1-one] was tested, and the IC50 (Table 2a) was 4.8 nM.
In the case of `COc1cccc2oc(-c3cnc4ccc(OC[C@H]5CN(C(=O)C6CC6)CCO5)nn34)cc12` [Example I-41, Cyclopropyl[(2R)-2-({[3-(4-methoxy-1-benzofuran-2-yl)imidazo[1,2-b]pyridazin-6-yl]oxy}methyl)morpholin-4-yl]methanone], the IC50 (Table 2a) is reported as 7 nM.
Molecule `COc1ccc2ncc(-c3cc4c(N5CCN[C@@H](C)C5)cccc4o3)n2n1` [II-40, 6-methoxy-3-{4-[(3S)-3-methylpiperazin-1-yl]-1-benzofuran-2-yl}imidazo[1,2-b]pyridazine] has an IC50 (Table 2b) of 4.4 nM.
`C[C@H]1CN(c2cccc3oc(-c4cnc5ccc(OCC(F)(F)F)nn45)cc23)CCN1` [II-41, 3-{4-[(3S)-3-methylpiperazin-1-yl]-1-benzofuran-2-yl}-6-(2,2,2-trifluoroethoxy)im-idazo[1,2-b]pyridazine] gave an IC50 (Table 2b) of 5.5 nM.
In the case of `C[C@H]1CN(c2cccc3oc(-c4cnc5ccc(OC[C@@H]6CCC(=O)N6)nn45)cc23)CCN1` [II-42, (5S)-5-{[(3-{4-[(3S)-3-methylpiperazin-1-yl]-1-benzofuran-2-yl}imidazo[1,2-b]pyridazin-6-yl)oxy]methyl}pyrrolidin-2-one], the IC50 (Table 2b) is reported as 5.8 nM.
With `C[C@H]1CN(c2cccc3oc(-c4cnc5ccc(OCCCS(C)(=O)=O)nn45)cc23)CCN1` [II-52, 3-{4-[(3S)-3-methylpiperazin-1-yl]-1-benzofuran-2-yl}-6-[3-(methylsulfonyl)pro-poxy]imidazo[1,2-b]pyri-dazine] the IC50 (Table 2b) was 7.1 nM.
`COc1ccc2ncc(-c3cc4c(N5CCNC(C)(C)C5)cccc4o3)n2n1` [II-60, 3-[4-(3,3-dimethylpiperazin-1-yl)-1-benzofuran-2-yl]-6-methoxy-imidazo[1,2-b]pyridazine] gave an IC50 (Table 2b) of 0.3 nM.
Work on `C[C@@H](N)COc1ccc2ncc(-c3cc4c(N5CCOC[C@@H]5C)nccc4o3)n2n1` [III-5, (2R)-1-[(3-{4-[(3S)-3-Methylmorpholin-4-yl]furo[3,2-c]pyridin-2-yl}imidazo-[1,2-b]pyridazin-6-yl)oxy]propan-2-amine] yielded an IC50 (Table 2c) of 10.1 nM.
Work on `C[C@@H](N)COc1ccc2ncc(-c3cc4c(N5CCO[C@@H](C)C5)nccc4o3)n2n1` [III-6, (2R)-1-[(3-{4-[(2S)-2-Methylmorpholin-4-yl]furo[3,2-c]pyridin-2-yl}imidazo-[1,2-b]pyridazin-6-yl)oxy]propan-2-amine] yielded an IC50 (Table 2c) of 8.8 nM.
For `C[C@H](N)COc1ccc2ncc(-c3cc4c(N5CCOC[C@@H]5C)nccc4o3)n2n1` [III-28, (2S)-1-[(3-{4-[(3S)-3-Methylmorpholin-4-yl]furo[3,2-c]pyridin-2-yl}imidazo-[1,2-b]pyridazin-6-yl)oxy]propan-2-amine], the IC50 (Table 2c) was 9.4 nM.
`C[C@H](N)COc1ccc2ncc(-c3cc4c(N5CCO[C@@H](C)C5)nccc4o3)n2n1` [III-29, (2S)-1-[(3-{4-[(2S)-2-Methylmorpholin-4-yl]furo[3,2-c]pyridin-2-yl}imidazo-[1,2-b]pyridazin-6-yl)oxy]propan-2-amine] showed an IC50 (Table 2c) of 4.8 nM.
`C[C@H]1COCCN1c1nccc2oc(-c3cnc4ccc(OCCCS(C)(=O)=O)nn34)cc12` [III-59, 3-{4-[(3S)-3-Methylmorpholin-4-yl]furo[3,2-c]pyridin-2-yl}-6-[3-(methyl-sulfonyl)propoxy]imidazo[1,2-b]pyridazine] was tested, and the IC50 (Table 2c) was 4.9 nM.
`C[C@H]1CN(c2nccc3oc(-c4cnc5ccc(OCCCS(C)(=O)=O)nn45)cc23)CCO1` [III-60, 3-{4-[(2S)-2-Methylmorpholin-4-yl]furo[3,2-c]pyridin-2-yl}-6-[3-(methyl-sulfonyl)propoxy]imidazo[1,2-b]pyridazine] was tested, and the IC50 (Table 2c) was 2.8 nM.
For `C[C@@H]1COCCN1c1nccc2oc(-c3cnc4ccc(OC[C@H]5CCC(=O)N5)nn34)cc12` [III-79, (5R)-5-{[(3-{4-[(3R)-3-Methylmorpholin-4-yl]furo[3,2-c]pyridin-2-yl}imidazo[1,2-b]pyridazin-6-yl)oxy]methyl}pyrrolidin-2-one], the IC50 (Table 2c) was 0.7 nM.
Work on `C[C@H]1COCCN1c1nccc2oc(-c3cnc4ccc(OC[C@H]5CCC(=O)N5)nn34)cc12` [III-84, (5R)-5-{[(3-{4-[(3S)-3-Methylmorpholin-4-yl]furo[3,2-c]pyridin-2-yl}imidazo[1,2-b]pyridazin-6-yl)oxy]methyl}pyrrolidin-2-one] yielded an IC50 (Table 2c) of 0.5 nM.
For `C[C@H]1COCCN1c1nccc2oc(-c3cnc4ccc(OC[C@@H]5CCC(=O)N5)nn34)cc12` [III-87, (5S)-5-{[(3-{4-[(3S)-3-Methylmorpholin-4-yl]furo[3,2-c]pyridin-2-yl}imidazo-[1,2-b]pyridazin-6-yl)oxy]methyl}pyrrolidin-2-one], the IC50 (Table 2c) was 3.7 nM.
`C[C@H]1CN(c2nccc3oc(-c4cnc5ccc(OC[C@@H]6CCC(=O)N6)nn45)cc23)CCO1` [III-88, (5S)-5-{[(3-{4-[(2S)-2-Methylmorpholin-4-yl]furo[3,2-c]pyridin-2-yl}imidazo-[1,2-b]pyridazin-6-yl)oxy]methyl}pyrrolidin-2-one] showed an IC50 (Table 2c) of 4.2 nM.
For `COc1ccc2ncc(-c3cc4c(N5CCOC[C@H]5C)nccc4o3)n2n1` [III-92, 6-Methoxy-3-{4-[(3R)-3-methylmorpholin-4-yl]furo[3,2-c]pyridin-2-yl}imidazo[1,2-b]pyridazine], the IC50 (Table 2c) was 3.2 nM.
Work on `COc1ccc2ncc(-c3cc4c(N5CCOC[C@@H]5C)nccc4o3)n2n1` [III-93, 6-Methoxy-3-{4-[(3S)-3-methylmorpholin-4-yl]furo[3,2-c]pyridin-2-yl}imidazo[1,2-b]pyridazine] yielded an IC50 (Table 2c) of 5.6 nM.
Molecule `COc1ccc2ncc(-c3cc4c(N5CCO[C@@H](C)C5)nccc4o3)n2n1` [III-94, 6-Methoxy-3-{4-[(2S)-2-methylmorpholin-4-yl]furo[3,2-c]pyridin-2-yl}imidazo[1,2-b]pyridazine] has an IC50 (Table 2c) of 4 nM.
`C[C@H]1COCCN1c1nccc2oc(-c3cnc4ccc(O[C@H]5C[C@H](N)C5)nn34)cc12` [III-109, trans-3-[(3-{4-[(3S)-3-Methylmorpholin-4-yl]furo[3,2-c]pyridin-2-yl}imidazo[1,2-b]pyridazin-6-yl)oxy]cyclobutanamine] showed an IC50 (Table 2c) of 5.2 nM.
`C[C@H]1CN(c2nccc3oc(-c4cnc5ccc(O[C@H]6C[C@H](N)C6)nn45)cc23)CCO1` [III-110, trans-3-[(3-{4-[(2S)-2-Methylmorpholin-4-yl]furo[3,2-c]pyridin-2-yl}imidazo[1,2-b]pyridazin-6-yl)oxy]cyclobutanamine] showed an IC50 (Table 2c) of 10.4 nM.
In the case of `C[C@@H]1CN(c2nccc3oc(-c4cnc5ccc(OCC(F)(F)F)nn45)cc23)CCN1` [III-127, 3-{4-[(3R)-3-methylpiperazin-1-yl]furo[3,2-c]pyridin-2-yl}-6-(2,2,2-trifluoroethoxy)imidazo [1,2-b]pyridazine], the IC50 (Table 2c) is reported as 4.2 nM.
Molecule `O=C1CC[C@H](COc2ccc3ncc(-c4cc5c(OCC6CC6)nccc5o4)n3n2)N1` [IV-12, (5R)-5-[({3-[4-(Cyclopropylmethoxy)furo[3,2-c]pyridin-2-yl]imidazo[1,2-b]-pyridazin-6-yl}oxy)methyl]pyrrolidin-2-one] has an IC50 (Table 2d) of 7 nM.
